Assay results published in PMC6773865, “Functional recruitment of dynamin requires multimeric interactions for efficient endocytosis” (Nature Communications, 2019).

Key:
[1] = biological target: T1, Ntr-bSUMO-amphSH3 complex (tetrameric, neutravidin) (Mus musculus, UniProt Q7TQF7); experiment: SPR, tetrameric Ntr-bSUMO-amphSH3 on immobilized peptides; format: binding, murine; details: in the tested concentration range
T1 construct: murine Ampiphysin1 SH3 domain residues 607–686); made in house; host or cells: E. coli BL21 (DE3) co-expressing BirA, with biotin

[2] = system: rat brain lysate proteins; experiment: Affinity isolation (pull-down) from rat brain lysate, silver stain and proteomics; format: binding; details: for proteins pulled down (silver stain, words): biotinylated peptide, rat brain lysate, streptavidin beads; for enrichment of co-precipitated proteins by mass spectroscopy: in comparison to control conditions (absence of peptide)
Method: Brains were obtained from adult (2–3 months old) Sprague-Dawley rats raised in the animal facility of Bordeaux University B 33 063 917. Animals were killed by decapitation after isoflurane anaesthesia (5%, 3 min), in accordance with the European 2010/63/EU directive and approved by the Bordeaux University Ethics Committee (CE50). Frozen brains (2 × ~1.5 g) were thawed in 20 mL ice cold modified RIPA buffer (50 mM Tris pH 7.5, 150 mM NaCl, 0.1% SDS, 0.5% sodium deoxycholate, 1% NP-40, 1 mM EDTA) containing a protease inhibitor mixture (1:1000; Protease Inhibitor Cocktail set III; Calbiochem) for about 5 min and cut into small pieces. The tissues were homogenised using a glass/teflon homogeniser. Homogenates were centrifuged at 7500 × g for 25 min at 4 °C to remove cell debris. The supernatant was aliquoted and stored at −80 °C until the affinity-based isolation (pull-down) experiments were performed. Streptavidin-coated beads (Dynabeads M-280, Life Technologies) were washed three times and incubated for 15 min at room temperature (RT) in modified RIPA buffer supplemented with 0.1% BSA. Rat brain lysates were incubated with the biotinylated peptide (or biotin as a negative control) for 10 min at RT before addition of the beads and further incubation for 5 min at RT. Beads were washed five times in RIPA buffer and transferred into new eppendorf tubes. For elution, acetylated ligands were added in excess to the bead suspension and incubated for 5 min at RT. The supernatant was kept for proteomics analysis and electrophoresis followed by silver staining after addition of fresh 6× sample buffer (ProteoSilver Silver Stain Kit, Sigma-Aldrich).
Samples were solubilized in Laemlli buffer and were deposited in triplicate onto SDS-PAGE. Separation was stopped once proteins have entered resolving gel. After colloidal blue staining, bands were cut out from the SDS-PAGE gel and subsequently cut in 1 mm × 1 mm gel pieces. Gel pieces were destained in 25 mM ammonium bicarbonate 50% MeCN, rinsed twice in ultrapure water and shrunk in MeCN for 10 min. After MeCN removal, gel pieces were dried at room temperature, covered with the trypsin solution (10 ng/µl in 50 mM NH4HCO3), rehydrated at 4 °C for 10 min, and finally incubated overnight at 37 °C. Spots were then incubated for 15 min in 50 mM NH4HCO3 at room temperature with rotary shaking. The supernatant was collected, and an H2O/MeCN/HCOOH (47.5:47.5:5) extraction solution was added onto gel slices for 15 min. The extraction step was repeated twice. Supernatants were pooled and dried in a vacuum centrifuge to a final volume of 25 µL. Digests were finally resuspended in 25 µl of formic acid (5%, v/v) and stored at −20 °C.
Peptide mixture was analysed on a Ultimate 3000 nanoLC system (Dionex, Amsterdam, The Netherlands) coupled to a nanospray LTQ-Orbitrap XL mass spectrometer (ThermoFinnigan, San Jose, CA). Ten microliters of peptide digests were loaded onto a 300-µm-inner diameter × 5-mm C18 PepMap^TM trap column (LC Packings) at a flow rate of 30 µL/min. The peptides were eluted from the trap column onto an analytical […] × 15-cm C18 Pep-Map column (LC Packings) with a 4–40% linear gradient of solvent B in 35 min (solvent A was 0.1% formic acid in 5% MeCN, and solvent B was 0.1% formic acid in 80% MeCN). The separation flow rate was set at 300 nL/min. The mass spectrometer operated in positive ion mode at a 2-kV needle voltage. Data were acquired in a data-dependent mode. Mass spectrometry (MS) scans (m/z 300–1700) were recorded at a resolution of R = 70,000 (@ m/z 400) and an AGC target of 5 × 10^5 ions collected within 500 ms. Dynamic exclusion was et to 30 s and top 6 ions were selected from fragmentation in CID mode. MS/MS scans with a target value of 1 × 10^4 ions were collected in the ion trap with a maximum fill time of 200 ms. Additionally, only +2 and +3 charged ions were selected for fragmentation. […]

[3] = biological target: T2, GST-amphSH3 (dimeric) (Mus musculus, UniProt Q7TQF7); experiment: SPR, dimeric GST-amphSH3 on immobilized peptides; format: binding, murine; details: below 1 µM
T2 construct: murine Ampiphysin1 SH3 domain residues 607–686); made in house; host or cells: E. coli BL21-CodonPlus (DE3)-RIPL
T2 sequence (Q7TQF7 607-686): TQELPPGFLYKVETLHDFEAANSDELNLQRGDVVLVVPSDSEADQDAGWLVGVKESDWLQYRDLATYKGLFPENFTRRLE

[4] = pull-down from rat brain lysate, LC-MS/MS, vs no peptide control

T1 sequence (P02701 25-152 partner, one chain of several): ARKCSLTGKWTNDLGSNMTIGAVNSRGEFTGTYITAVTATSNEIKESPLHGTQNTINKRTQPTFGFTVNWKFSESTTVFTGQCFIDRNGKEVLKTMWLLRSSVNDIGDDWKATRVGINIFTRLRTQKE

Compound: Ac-YPPPQVPSRPNRAPPG-NH2 [D15, reference compound]
- binding of Ntr-bSUMO-amphSH3 [1]: no binding was observed
- proteins pulled down (silver stain, words) [2]: unable to pull down any detectable amount of protein
- enrichment of co-precipitated proteins by mass spectroscopy [2]: failed to show any significant enrichment
- Max fold change, BIN1 (Amph2) [2, 4]: 0.163
- Max fold change, CD2-ap [2, 4]: 0.01
- Max fold change, Endophilin-A1 [2, 4]: 0.001
- Max fold change, Intersectin-2 [2, 4]: 0.944
- Max fold change, SH3d19 [2, 4]: 0.232
- Max fold change, SH3kbp1/CIN85 [2, 4]: 0.205
- Max fold change, any SH3 domain-containing protein [2, 4]: < 1
- binding of GST-amphSH3 [3]: no measureable binding

Compound: CC(=O)N[C@@H](Cc1ccc(O)cc1)C(=O)N[C@@H](CCCCn1cc(CCC(=O)NCCCOCCOCCOCCCNC(=O)CCC(=O)NCCCOCCOCCOCCCNC(=O)CCC(=O)NCCCOCCOCCOCCCNC(=O)CCC(=O)N2CCC[C@H]2C(=O)N2CCC[C@H]2C(=O)N2CCC[C@H]2C(=O)N[C@@H](CCC(N)=O)C(=O)N[C@H](C(=O)N2CCC[C@H]2C(=O)N[C@@H](CO)C(=O)N[C@@H](CCCNC(=N)N)C(=O)N2CCC[C@H]2C(=O)N[C@@H](CC(N)=O)C(=O)N[C@@H](CCCNC(=N)N)C(=O)N[C@@H](C)C(=O)N2CCC[C@H]2C(=O)N2CCC[C@H]2C(=O)NCC(N)=O)C(C)C)nn1)C(=O)NCCCOCCOCCOCCCNC(=O)CCC(=O)NCCCOCCOCCOCCCNC(=O)CCC(=O)NCCCOCCOCCOCCCNC(=O)CCC(=O)N1CCC[C@H]1C(=O)N1CCC[C@H]1C(=O)N1CCC[C@H]1C(=O)N[C@@H](CCC(N)=O)C(=O)N[C@H](C(=O)N1CCC[C@H]1C(=O)N[C@@H](CO)C(=O)N[C@@H](CCCNC(=N)N)C(=O)N1CCC[C@H]1C(=O)N[C@@H](CC(N)=O)C(=O)N[C@@H](CCCNC(=N)N)C(=O)N[C@@H](C)C(=O)N1CCC[C@H]1C(=O)N1CCC[C@H]1C(=O)NCC(N)=O)C(C)C [dD15-N]
- proteins pulled down (silver stain, words) [2]: isolated a number of proteins
- enrichment of co-precipitated proteins by mass spectroscopy [2]: highly enriched in CME related proteins
- Max fold change, AP2a1 [2, 4]: 28.6
- Max fold change, AP2a2 [2, 4]: 13.8
- Max fold change, AP2b1 [2, 4]: 40.0
- Max fold change, AP2m1 [2, 4]: 25.5
- Max fold change, Actg1 [2, 4]: 2.2
- Max fold change, Actg2 [2, 4]: 2.3
- Max fold change, Amphiphysin1 [2, 4]: 40.7
- Max fold change, Amy1a [2, 4]: 2.8
- Max fold change, Appbp2 [2, 4]: 20.8
- Max fold change, Atp1a3 [2, 4]: 33.4
- Max fold change, BIN1 (Amph2) [2, 4]: 70.2
- Max fold change, CD2-ap [2, 4]: 124.5
- Max fold change, CHC [2, 4]: 22.7
- Max fold change, Calcoco1 [2, 4]: 11.9
- Max fold change, Capza1 [2, 4]: 23.0
- Max fold change, Dnm1 [2, 4]: 27.4
- Max fold change, Endophilin-A1 [2, 4]: 53.5
- Max fold change, Endophilin-A2 [2, 4]: 1.7
- Max fold change, Eps15l1 [2, 4]: 196.9
- Max fold change, Hspa5 [2, 4]: 4.1
- Max fold change, Hspa8 [2, 4]: 15.6
- Max fold change, Hspa9 [2, 4]: 42.1
- Max fold change, Intersectin-1 [2, 4]: 60.7
- Max fold change, Intersectin-2 [2, 4]: 118.9
- Max fold change, Rundc3a [2, 4]: 16.0
- Max fold change, SH3d19 [2, 4]: 42.9
- Max fold change, SH3kbp1/CIN85 [2, 4]: 207.5
- Max fold change, SNX18 [2, 4]: 16.1
- Max fold change, Tuba1a [2, 4]: 13.3
- Max fold change, Tuba4a [2, 4]: 14.5
- Max fold change, Tubb2a [2, 4]: 75.4
- Max fold change, Tubb3 [2, 4]: 1.2
- Max fold change, Tubb4a [2, 4]: 43.4
- Max fold change, Tubb5 [2, 4]: 18.0
- Max fold change, Ubc [2, 4]: 1.2
